One series has as its system SARS-CoV-2. The series is described as follows: SARS-CoV-2/Hela-ACE Test. Format: cell-based.
A short description of series [1]: Toxicity Testing in Uninfected Cells. Particulars: human, Cell-Titer Glo cell viability. Format: cell-based. As for the experimental part:
Toxicity Testing in Uninfected Cells
The compound was transferred to a 1536-well plate (Corning No. 9006BC), and then Hela-ACE cells were added (cell density: 600 cells/5 microliter of medium MEM with 2% FBS). After the assay plate was incubated at 37°C in 5% CO2 for 48 hours, cell viability was tested. 2 µL of 50% Cell-Titer Glo (Promega No G7573) was diluted in water and added to a cell assay plate, and then a value on EnVision Plate Reader (Perkin Elmer) was read.

For another series, the target named is SARS-CoV-2 3CLpro (Severe acute respiratory syndrome coronavirus 2, UniProt P0DTD1). Description: Enzyme Activity Test. It counts as biochemical.
Setting [2] is: Severe acute respiratory syndrome coronavirus 2, Hela-ACE cells infected with SARS-CoV-2 (USA-WA1/2020), MOI 0.75-1, 48 hours, read-out: Hela ACE2-CoV-2 EC50.
Where [3] appears, read: uninfected Hela-ACE (HeLa ACE2) cells.

Where two headings read alike, the source gives them in different places.

For the compound `O=C1CCN(c2cc(Cl)cc(OCC(F)(F)F)c2)C(=O)N1c1cncc2ccccc12` [Example 2], the EC50 with SARS-CoV-2 (setting [2]) turned out to be 0.03 µM. The CC50 at 48 h in series [1] (setting [3]) is more than 99 µM.
`O=C1CCN(c2cc(Cl)cc(OCC3CC3)c2)C(=O)N1c1cncc2ccccc12` [Example 3]: the concentration for a half-maximal effect (EC50) with SARS-CoV-2 (setting [2]) came to 0.064 µM. The same compound showed a half-maximal cytotoxic concentration (CC50) at 48 h in series [1] (setting [3]) of 73.4 µM.
On the same counts, the results for `O=C1CCN(c2cc(Cl)cc(OCC3CC(F)(F)C3)c2)C(=O)N1c1cncc2ccccc12` [Example 5] are 0.074 µM and more than 99 µM.
With `O=C1CCN(c2cc(Cl)cc(N3CC4(COC4)C3)c2)C(=O)N1c1cncc2ccccc12` [Example 23], the EC50 in the series on SARS-CoV-2 (setting [2]) is 0.035 µM. Also, the cytotoxic concentration (CC50) at 48 h in series [1] (setting [3]) is more than 99 µM.
Consider `O=C1N(c2cc(Cl)cc(OCC(F)(F)F)c2)CC2(CC2)C(=O)N1c1cncc2ccccc12` [Example 33], for which, in the series with SARS-CoV-2 (setting [2]), the EC50 came to 0.087 µM. The compound also gave a cytotoxic concentration (CC50) at 48 h in series [1] (setting [3]) of more than 99 µM.
For `Cc1cncc(N2C(=O)CCN(c3cc(Cl)cc(OCC(F)(F)F)c3)C2=O)c1C` [Example 47], the IC50 against SARS-CoV-2 3CLpro is 0.055 µM.
In the case of `Cc1ccc2cncc(N3C(=O)CCN(c4cc(Cl)cc(OCC(F)(F)F)c4)C3=O)c2c1` [Example 48], in the series on SARS-CoV-2 (Severe acute respiratory syndrome coronavirus 2, HeLa, 48 h, read-out: Hela ACE2-CoV-2 EC50 (µM)), the EC50 came to 0.052 µM. The compound also gave a 50% cytotoxic concentration (CC50) at 48 h in series [1] (hela-ace2 cells, uninfected Hela-ACE cells) of more than 99 µM. In addition, the 50% inhibitory concentration (IC50) against SARS-CoV-2 3CLpro turned out to be 0.05 µM.
`O=C1CCN(c2cc(Cl)cc(OCC(F)(F)F)c2)C(=O)N1c1cncc2ccc(F)cc12` [Example 49] displayed an IC50 on SARS-CoV-2 3CLpro of 0.043 µM.
As for `O=C1CCN(c2cc(F)c(Cl)c(OCC(F)(F)F)c2)C(=O)N1c1cncc2ccccc12` [Example 55], the EC50 in the series with SARS-CoV-2 (setting [2]) came to 0.072 µM. The CC50 at 48 h in series [1] (setting [3]) came to 74 µM.

For orientation: EC50 means the concentration that produces a half-maximal response. What is called CC50 is the concentration giving 50% cytotoxicity. A low value points to greater toxicity to the cells. As a reminder, the IC50 is the concentration that inhibits the measured activity by half. The low end stands for inhibition by little substance, the high end for a need for much substance.

The values are drawn from patent EP4775569A1, “3CL PROTEASE INHIBITOR FOR TREATING OR PREVENTING CORONAVIRUS INFECTIONS AND USE THEREOF” (The Global Health Drug Discovery Institute, priority 2023, dated 2025).
